Data on eleven compounds can be found in ChEMBL document CHEMBL1201862, “PubChem BioAssay data set” (2004).

Some test systems named below: KM12; CAKI-1; U-251; NCI/ADR-RES; MCF7; COLO 205; HOP-62; NCI-H522; MOLT-4; DU-145; LOX IMVI; SF-268; SK-MEL-28; HT-29; SK-MEL-5; SNB-75; SN12C; HCC 2998; NCI-H460.
Assay in all cases: NCI anticancer screen, dose series, 48 h

SMILES strings stand for the structures.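 Values below derive from 48-hour exposures of cells grown in 96-well plates, with endpoints linearly interpolated between the two concentrations bracketing the appropriate inhibition level. Here, GI50 denotes the concentration required for 50% inhibition of growth.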 Activity calls are given as the source filed them. No stated cut-off is given here; in the data, active = GI50 up to about 1.1 µM and inactive = higher.

Regarding `CSc1[nH]cnc1C(N)=S`, the GI50 with KM12, in the assay on CAKI-1, in the assay on U-251, with NCI/ADR-RES, with MCF7 and in the assay on COLO 205 was > 100 µM (inactive) each time. Moreover, the GI50 in the assay on HOP-62, in the assay with NCI-H522, in the assay on MOLT-4, with DU-145, in the assay on LOX IMVI and in the assay with SF-268 was > 100 µM (inactive) each time. Further, the GI50 in the assay with SK-MEL-28, in the assay with HT-29, with SK-MEL-5 and with SNB-75 was > 100 µM (inactive) each time.

As for `C[n+]1c(-c2ccccc2)cc2/c(=C\c3ccccc3)c3ccccc3n21`, the GI50 with KM12 is 0.738 µM (active); in the assay with CAKI-1 it was 2.94 µM (inactive); with U-251, 0.233 µM (active); with NCI/ADR-RES, 14.6 µM (inactive); in the assay on MCF7 it was 1.34 µM (inactive); in the assay with COLO 205 it was 0.339 µM (active). Also, the GI50 in the assay on HOP-62 is 2.43 µM (inactive); with NCI-H522, 0.363 µM (active); with SN12C, 0.308 µM (active); with MOLT-4, 1.73 µM (inactive); with HCC 2998, 3.84 µM (inactive); in the assay on DU-145, 2.54 µM (inactive). The GI50 is 1.25 µM (inactive) in the assay with LOX IMVI; 0.593 µM (active) with SF-268; 0.871 µM (active) with SK-MEL-28; 1.06 µM (active) in the assay on HT-29; 0.667 µM (active) in the assay on SK-MEL-5; 0.422 µM (active) in the assay on SNB-75.

Turning to `CCOC(=O)c1cc(C(O)P2(=O)N(CC(C)(C)C)[C@@H]3CCCC[C@H]3N2CC(C)(C)C)cn1C(=O)OC(C)(C)C` (stereo not given in full), the GI50 with KM12 was 14.8 µM (inactive); with CAKI-1 it was 14.8 µM (inactive); in the assay with U-251, 15.9 µM (inactive); in the assay with NCI/ADR-RES, 16.8 µM (inactive); in the assay on MCF7, 18.7 µM (inactive); in the assay on COLO 205 it was 17.3 µM (inactive). Also, the GI50 with HOP-62 was 13.7 µM (inactive); in the assay on NCI-H522 it was 13.8 µM (inactive); in the assay on SN12C it was 13.3 µM (inactive); in the assay on MOLT-4, 12.8 µM (inactive); with HCC 2998 it was 16.2 µM (inactive); in the assay on DU-145, 16.6 µM (inactive). The GI50 in the assay with LOX IMVI was 17.6 µM (inactive); in the assay with SF-268 it was 15.8 µM (inactive); with SK-MEL-28, 16.6 µM (inactive); in the assay with HT-29, 13.8 µM (inactive); with SK-MEL-5 it was 17.5 µM (inactive).

With `O=C(O)CC[P+](c1ccccc1)(c1ccccc1)c1ccccc1`, the GI50 is 29 µM (inactive) with KM12; > 100 µM (inactive) in the assay on CAKI-1; 23.2 µM (inactive) in the assay on U-251; > 100 µM (inactive) with NCI/ADR-RES; 39 µM (inactive) with MCF7; 14.3 µM (inactive) with COLO 205. Further, the GI50 in the assay with HOP-62 is 37.2 µM (inactive); in the assay on NCI-H522, 24.5 µM (inactive); in the assay with SN12C, 16.9 µM (inactive); with MOLT-4, 49.1 µM (inactive); in the assay with HCC 2998, > 100 µM (inactive); in the assay with DU-145 it was 48.2 µM (inactive). The GI50 in the assay with LOX IMVI was 30.7 µM (inactive); with SF-268, 31.3 µM (inactive); in the assay on SK-MEL-28, > 100 µM (inactive); in the assay with HT-29 it was 15.4 µM (inactive); with SK-MEL-5, 14.6 µM (inactive); in the assay with SNB-75 it was 28.4 µM (inactive).

`CC(=O)Oc1c(C)cc(-c2cc(C)c(OC(C)=O)c(C)c2)cc1C`: the GI50 in the assay on KM12 was 17.9 µM (inactive); in the assay with CAKI-1, 57.9 µM (inactive); with U-251, 15 µM (inactive); in the assay with NCI/ADR-RES, 21.1 µM (inactive); in the assay with MCF7, > 100 µM (inactive); in the assay on COLO 205, 50.4 µM (inactive). Besides, the GI50 is 45.7 µM (inactive) in the assay with HOP-62; 24 µM (inactive) in the assay on NCI-H522; 47.1 µM (inactive) in the assay on SN12C; > 100 µM (inactive) in the assay on MOLT-4; 41.7 µM (inactive) in the assay with DU-145; 39.9 µM (inactive) in the assay on NCI-H460. In addition, the GI50 was 17.2 µM (inactive) in the assay on LOX IMVI; 36 µM (inactive) in the assay on SF-268; 27.6 µM (inactive) in the assay with SK-MEL-28; 45.4 µM (inactive) in the assay on HT-29; 25.4 µM (inactive) in the assay on SK-MEL-5; 16.2 µM (inactive) in the assay on SNB-75.

For the compound `CCCCCCCCCCCCNC(=O)CCC(NC(=O)c1ccc(N(C)Cc2cnc3nc(N)nc(N)c3n2)cc1)C(=O)NCCCCCCCCCCCC` (stereo not given), the GI50 in the assay with KM12 is 46.7 µM (inactive); in the assay on U-251, 12.3 µM (inactive); in the assay with NCI/ADR-RES, > 100 µM (inactive); in the assay on MCF7, 30.6 µM (inactive); in the assay on COLO 205, > 100 µM (inactive); with HOP-62, 23.6 µM (inactive). In addition, the GI50 in the assay with NCI-H522 is > 100 µM (inactive); in the assay with SN12C, 91.8 µM (inactive); in the assay with MOLT-4, > 100 µM (inactive); in the assay on HCC 2998, 45.7 µM (inactive); with DU-145 it was > 100 µM (inactive); in the assay on LOX IMVI, 17 µM (inactive). The GI50 with SF-268 is 78.3 µM (inactive); in the assay on SK-MEL-28 it was 43.3 µM (inactive); in the assay on HT-29, > 100 µM (inactive); in the assay on SK-MEL-5 it was > 100 µM (inactive); with SNB-75, 3.68 µM (inactive).

For `Nc1cc(Cl)ccc1SSc1ccc(Cl)cc1N`, the GI50 in the assay with KM12 was 9.51 µM (inactive); in the assay on CAKI-1, 19.6 µM (inactive); with U-251, 4.15 µM (inactive); with NCI/ADR-RES it was 7.94 µM (inactive); in the assay on MCF7 it was 3.85 µM (inactive); in the assay with COLO 205, 16.8 µM (inactive). The GI50 in the assay on HOP-62 is 14.6 µM (inactive); in the assay on NCI-H522, 7.57 µM (inactive); in the assay on SN12C, 11.9 µM (inactive); in the assay with MOLT-4 it was 4.06 µM (inactive); in the assay on DU-145 it was 15.2 µM (inactive); with NCI-H460, 12.5 µM (inactive). Besides, the GI50 in the assay on LOX IMVI is 3.49 µM (inactive); with SF-268, 14.7 µM (inactive); in the assay on SK-MEL-28, 15.9 µM (inactive); in the assay with HT-29 it was 16.1 µM (inactive); in the assay on SK-MEL-5, 14 µM (inactive); with SNB-75, 16.8 µM (inactive).

For the compound `CN(C)/C=N\c1cccc2cnccc12`, the GI50 in the assay with CAKI-1, in the assay on U-251, in the assay on NCI/ADR-RES, with MCF7, with COLO 205 and in the assay with HOP-62 was > 100 µM (inactive) in each case. For the same compound, the GI50 with NCI-H522, in the assay on SN12C, with MOLT-4, in the assay with DU-145, in the assay with LOX IMVI and in the assay on SF-268 was > 100 µM (inactive) in each case. Besides, the GI50 in the assay with SK-MEL-28 was > 100 µM (inactive); with HT-29, > 100 µM (inactive); in the assay with SK-MEL-5 it was > 100 µM (inactive); with SNB-75, 44.8 µM (inactive).

On to `COc1ccc(NC(S)=Nc2cccc(C)n2)cc1`, for which the GI50 with KM12 is > 100 µM (inactive); with CAKI-1, 37.9 µM (inactive); in the assay with U-251, 33.5 µM (inactive); in the assay with NCI/ADR-RES, > 100 µM (inactive); with MCF7, > 100 µM (inactive); in the assay on COLO 205, > 100 µM (inactive). For the same compound, the GI50 was 25.6 µM (inactive) in the assay on HOP-62; > 100 µM (inactive) in the assay on MOLT-4; > 100 µM (inactive) in the assay on HCC 2998; > 100 µM (inactive) in the assay on DU-145; > 100 µM (inactive) in the assay with NCI-H460; > 100 µM (inactive) in the assay on LOX IMVI. Moreover, the GI50 in the assay on SF-268 was 55.1 µM (inactive); with SK-MEL-28 it was > 100 µM (inactive); in the assay on HT-29, > 100 µM (inactive); in the assay with SK-MEL-5, > 100 µM (inactive); in the assay on SNB-75, 69.5 µM (inactive).

`CN(C)CCNC(=O)c1ccc(NC(=O)c2nc([N+](=O)[O-])cn2C)cc1`: the GI50 in the assay on KM12, with CAKI-1, with U-251, in the assay on NCI/ADR-RES, in the assay with MCF7 and with COLO 205 was > 100 µM (inactive) in each case. Further, the GI50 in the assay on HOP-62, in the assay on NCI-H522, in the assay with SN12C, in the assay on MOLT-4, in the assay on DU-145 and in the assay with NCI-H460 was > 100 µM (inactive) throughout. Further, the GI50 in the assay on LOX IMVI, in the assay on SF-268, in the assay on SK-MEL-28, in the assay with HT-29, in the assay with SK-MEL-5 and in the assay with SNB-75 was > 100 µM (inactive) each time.

With `Cc1cn(CCCCCCOC(=O)NC(CCCNC(=N)N)C(=O)O)c(=O)[nH]c1=O` (stereo not given), the GI50 in the assay on KM12, in the assay on CAKI-1, in the assay with U-251, in the assay with NCI/ADR-RES, with MCF7 and in the assay with COLO 205 was > 100 µM (inactive) each time. For the same compound, the GI50 in the assay with HOP-62, in the assay on SN12C, in the assay with MOLT-4, in the assay with HCC 2998, in the assay with DU-145 and in the assay on NCI-H460 was > 100 µM (inactive) each time. Besides, the GI50 in the assay with LOX IMVI, with SF-268, in the assay with SK-MEL-28, with HT-29 and in the assay on SNB-75 was > 100 µM (inactive) each time.
